Laboratory results from patent US20240132431A1, “METHOD FOR ALKYLATING ACIDIC FUNCTIONAL GROUP” (Chugai Seiyaku Kabushiki Kaisha, priority 2021, published 2024).

Target: T1, Bcl-2 protein (Recombinant Human Bcl-2 Protein) (Homo sapiens, UniProt P10415)
T1 construct: purchased Novus NBP2-34889
Experiment: Binding evaluation of mixture library compounds to Bcl-2 using AS-MS (affinity selection mass spectrometry)
In short: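 Affinity selection MS: Bcl-2 20 μM + 1200-cpd mixture, […]/cpd, Tris pH 7.4 buffer w/ Tween-20, DTT; 1 h 23° C dark; P-2 spin SEC; MeCN/MeOH extraction; RP LC/MS. ASMS Ratio(%) = (A−C)/B×100.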

T1 sequence (P10415 whole entry): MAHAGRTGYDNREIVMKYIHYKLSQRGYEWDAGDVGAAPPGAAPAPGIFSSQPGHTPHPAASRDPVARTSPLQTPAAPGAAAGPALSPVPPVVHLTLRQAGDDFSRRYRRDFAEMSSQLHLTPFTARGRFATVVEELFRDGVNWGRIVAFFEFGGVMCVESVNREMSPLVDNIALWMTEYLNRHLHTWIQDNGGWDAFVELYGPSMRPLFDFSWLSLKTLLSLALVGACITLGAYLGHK

Row | ASMS ratio (%) (n = 1) | ASMS ratio (%) (n = 2) | Structure (SMILES)
1 | −1.4 | 0.1 | CCOc1cccc(-c2cnn(-c3cc(C(=O)N4CCN(c5ccc(C(=O)NS(=O)(=O)CCC(F)(F)F)cc5)CC4)cc(C(F)(F)F)c3)c2)c1 [B2N043-01, 4-[4-[3-[4-(3-Ethoxyphenyl)pyrazol-1-yl]-5-(trifluoromethyl)benzoyl]piperazin-1-yl]-N-(3,3,3-trifluoropropylsulfonyl)benzamide]
2 | 0.2 | 1.4 | CCOc1cncc(-c2cnn(-c3cc(C(=O)N4CCN(c5ccc(C(=O)NS(=O)(=O)CCC(F)(F)F)cc5)CC4)cc(C(F)(F)F)c3)c2)c1 [B2N044-01, 4-[4-[3-[4-(5-Ethoxypyridin-3-yl)pyrazol-1-yl]-5-(trifluoromethyl)benzoyl]piperazin-1-yl]-N-(3,3,3-trifluoropropylsulfonyl)benzamide]
3 | 0.0 | 0.1 | CCOc1cccc(-c2ccccc2CN2CCN(c3ccc(C(=O)NS(=O)(=O)CCC(F)(F)F)cc3)CC2)c1 [B2N045-01, 4-[4-[[2-(3-Ethoxyphenyl)phenyl]methyl]piperazin-1-yl]-N-(3,3,3-trifluoropropylsulfonyl)benzamide]
4 | 0.0 | −1.2 | CCOc1cncc(-c2ccccc2CN2CCN(c3ccc(C(=O)NS(=O)(=O)CCC(F)(F)F)cc3)CC2)c1 [B2N046-01, 4-[4-[[2-(5-Ethoxypyridin-3-yl)phenyl]methyl]piperazin-1-yl]-N-(3,3,3-trifluoropropylsulfonyl)benzamide]
5 | 0.0 | 0.0 | CCOc1cccc(-c2ccc(CN3CCN(c4ccc(C(=O)NS(=O)(=O)CCC(F)(F)F)cc4)CC3)cc2C)c1 [B2N047-01, 4-[4-[[4-(3-Ethoxyphenyl)-3-methylphenyl]methyl]piperazin-1-yl]-N-(3,3,3-trifluoropropylsulfonyl)benzamide]
6 | 0.0 | −0.7 | CCOc1cncc(-c2ccc(CN3CCN(c4ccc(C(=O)NS(=O)(=O)CCC(F)(F)F)cc4)CC3)cc2C)c1 [B2N048-01, 4-[4-[[4-(5-Ethoxypyridin-3-yl)-3-methylphenyl]methyl]piperazin-1-yl]-N-(3,3,3-trifluoropropylsulfonyl)benzamide]
7 | 0.0 | 0.0 | CCOc1cccc(-c2ccc(CN3CCN(c4ccc(C(=O)NS(=O)(=O)CCC(F)(F)F)cc4)CC3)c(CC)c2)c1 [B2N049-01, 4-[4-[[4-(3-Ethoxyphenyl)-2-ethylphenyl]methyl]piperazin-1-yl]-N-(3,3,3-trifluoropropylsulfonyl)benzamide]
8 | 0.0 |  | CCOc1cncc(-c2ccc(CN3CCN(c4ccc(C(=O)NS(=O)(=O)CCC(F)(F)F)cc4)CC3)c(CC)c2)c1 [B2N050-01, 4-[4-[[4-(5-Ethoxypyridin-3-yl)-2-ethylphenyl]methyl]piperazin-1-yl]-N-(3,3,3-trifluoropropylsulfonyl)benzamide]
9 | 0.0 | 0.0 | CCOc1cccc(-c2ccc(CN3CCN(c4ccc(C(=O)NS(=O)(=O)CCC(F)(F)F)cc4)CC3)cc2F)c1 [B2N051-01, 4-[4-[[4-(3-Ethoxyphenyl)-3-fluorophenyl]methyl]piperazin-1-yl]-N-(3,3,3-trifluoropropylsulfonyl)benzamide]
10 | 0.0 | −0.5 | CCOc1cncc(-c2ccc(CN3CCN(c4ccc(C(=O)NS(=O)(=O)CCC(F)(F)F)cc4)CC3)cc2F)c1 [B2N052-01, 4-[4-[[4-(5-Ethoxypyridin-3-yl)-3-fluorophenyl]methyl]piperazin-1-yl]-N-(3,3,3-trifluoropropylsulfonyl)benzamide]
11 | 0.0 | 1.4 | CCOc1cccc(-c2ccc(CN3CCN(c4ccc(C(=O)NS(=O)(=O)CCC(F)(F)F)cc4)CC3)c(OC)c2)c1 [B2N053-01, 4-[4-[[4-(3-Ethoxyphenyl)-2-methoxyphenyl]methyl]piperazin-1-yl]-N-(3,3,3-trifluoropropylsulfonyl)benzamide]
12 | 0.0 | 0.0 | CCOc1cncc(-c2ccc(CN3CCN(c4ccc(C(=O)NS(=O)(=O)CCC(F)(F)F)cc4)CC3)c(OC)c2)c1 [B2N054-01, 4-[4-[[4-(5-Ethoxypyridin-3-yl)-2-methoxyphenyl]methyl]piperazin-1-yl]-N-(3,3,3-trifluoropropylsulfonyl)benzamide]
13 | 0.0 | 0.0 | CCOc1cccc(-c2cc(CN3CCN(c4ccc(C(=O)NS(=O)(=O)CCC(F)(F)F)cc4)CC3)cc(OCC)c2)c1 [B2N055-01, 4-[4-[[3-Ethoxy-5-(3-ethoxyphenyl)phenyl]methyl]piperazin-1-yl]-N-(3,3,3-trifluoropropylsulfonyl)benzamide]
14 | 0.0 | −1.8 | CCOc1cccc(-c2cc(CN3CCN(c4ccc(C(=O)NS(=O)(=O)CCC(F)(F)F)cc4)CC3)cc(OC(C)C)c2)c1 [B2N057-01, 4-[4-[[3-(3-Ethoxyphenyl)-5-propan-2-yloxyphenyl]methyl]piperazin-1-yl]-N-(3,3,3-trifluoropropylsulfonyl)benzamide]
15 | 0.0 | 0.0 | CCOc1cncc(-c2cc(CN3CCN(c4ccc(C(=O)NS(=O)(=O)CCC(F)(F)F)cc4)CC3)cc(OC(C)C)c2)c1 [B2N058-01, 4-[4-[[3-(5-Ethoxypyridin-3-yl)-5-propan-2-yloxyphenyl]methyl]piperazin-1-yl]-N-(3,3,3-trifluoropropylsulfonyl)benzamide]
16 | 0.0 | 0.0 | CCOc1cccc(-c2cc(OC)c(CN3CCN(c4ccc(C(=O)NS(=O)(=O)CCC(F)(F)F)cc4)CC3)c(OC)c2)c1 [B2N059-01, 4-[4-[[4-(3-Ethoxyphenyl)-2,6-dimethoxyphenyl]methyl]piperazin-1-yl]-N-(3,3,3-trifluoropropylsulfonyl)benzamide]
17 | 0.0 | 0.0 | CCOc1cncc(-c2cc(OC)c(CN3CCN(c4ccc(C(=O)NS(=O)(=O)CCC(F)(F)F)cc4)CC3)c(OC)c2)c1 [B2N060-01, 4-[4-[[4-(5-Ethoxypyridin-3-yl)-2,6-dimethoxyphenyl]methyl]piperazin-1-yl]-N-(3,3,3-trifluoropropylsulfonyl)benzamide]
18 | 0.0 | 0.0 | CCOc1cncc(-c2cc(CN3CCN(c4ccc(C(=O)NS(=O)(=O)CCC(F)(F)F)cc4)CC3)cc(C(F)(F)F)c2)c1 [B2N062-01, 4-[4-[[3-(5-Ethoxypyridin-3-yl)-5-(trifluoromethyl)phenyl]methyl]piperazin-1-yl]-N-(3,3,3-trifluoropropylsulfonyl)benzamide]
19 | −0.3 | −3.8 | CCOc1cccc(-c2cc(CN3CCN(c4ccc(C(=O)NS(=O)(=O)CCC(F)(F)F)cc4)CC3)cc(OC(F)(F)F)c2)c1 [B2N063-01, 4-[4-[[3-(3-Ethoxyphenyl)-5-(trifluoromethoxy)phenyl]methyl]piperazin-1-yl]-N-(3,3,3-trifluoropropylsulfonyl)benzamide]
20 | 0.0 | 0.0 | CCOc1cncc(-c2cc(CN3CCN(c4ccc(C(=O)NS(=O)(=O)CCC(F)(F)F)cc4)CC3)cc(OC(F)(F)F)c2)c1 [B2N064-01, 4-[4-[[3-(5-Ethoxypyridin-3-yl)-5-(trifluoromethoxy)phenyl]methyl]piperazin-1-yl]-N-(3,3,3-trifluoropropylsulfonyl)benzamide]
21 | 0.0 | 0.0 | CCOc1cncc(-c2ccc(CN3CCN(c4ccc(C(=O)NS(=O)(=O)CCC(F)(F)F)cc4)CC3)c3ccccc23)c1 [B2N066-01, 4-[4-[[4-(5-Ethoxypyridin-3-yl)naphthalen-1-yl]methyl]piperazin-1-yl]-N-(3,3,3-trifluoropropylsulfonyl)benzamide]
22 | 0.0 | 0.0 | CCOc1cccc(-c2csc(CN3CCN(c4ccc(C(=O)NS(=O)(=O)CCC(F)(F)F)cc4)CC3)c2)c1 [B2N067-01, 4-[4-[[4-(3-Ethoxyphenyl)thiophen-2-yl]methyl]piperazin-1-yl]-N-(3,3,3-trifluoropropylsulfonyl)benzamide]
23 | −1.8 | −1.5 | CCOc1cccc(C#Cc2ccccc2CN2CCN(c3ccc(C(=O)NS(=O)(=O)CCC(F)(F)F)cc3)CC2)c1 [B2N069-01, 4-[4-[[2-[2-(3-Ethoxyphenyl)ethynyl]phenyl]methyl]piperazin-1-yl]-N-(3,3,3-trifluoropropylsulfonyl)benzamide]
24 | 0.0 | 0.0 | CCOc1cncc(C#Cc2ccccc2CN2CCN(c3ccc(C(=O)NS(=O)(=O)CCC(F)(F)F)cc3)CC2)c1 [B2N070-01, 4-[4-[[2-[2-(5-Ethoxypyridin-3-yl)ethynyl]phenyl]methyl]piperazin-1-yl]-N-(3,3,3-trifluoropropylsulfonyl)benzamide]
25 | 0.0 | 0.0 | CCOc1cccc(-c2ccccc2CN2CCN(c3ccc(C(=O)NS(=O)(=O)CCC(F)(F)F)nn3)CC2)c1 [B2N071-01, 6-[4-[[2-(3-Ethoxyphenyl)phenyl]methyl]piperazin-1-yl]-N-(3,3,3-trifluoropropylsulfonyl)pyridazine-3-carboxamide]

Row | Structure (SMILES) | ASMS ratio (%) (n = 1) | ASMS ratio (%) (n = 2)
26 | CCOc1cncc(-c2cc(CN3CCN(c4ccc(C(=O)NS(=O)(=O)CCC(F)(F)F)cc4)CC3)cc(OCC)c2)c1 [B2N056-01] | 0.0 | 0.0
27 | CCOc1cccc(-c2cc(CN3CCN(c4ccc(C(=O)NS(=O)(=O)CCC(F)(F)F)cc4)CC3)cc(C(F)(F)F)c2)c1 [B2N061-01] | 0.0 | 0.0
28 | CCOc1cccc(-c2ccc(CN3CCN(c4ccc(C(=O)NS(=O)(=O)CCC(F)(F)F)cc4)CC3)c3ccccc23)c1 [B2N065-01] | 0.0 | 0.0
29 | CCOc1cncc(-c2csc(CN3CCN(c4ccc(C(=O)NS(=O)(=O)CCC(F)(F)F)cc4)CC3)c2)c1 [B2N068-01] | 0.0 | 0.5
